Literature values as cited in patent publication US20040198838A1, “Pharmaceutical compositions containig terbinafin and use thereof” (priority 2001, published 2004).

Tests used:
CYP2D6 = CYP2D6 (Homo sapiens, UniProt P10635)
CYP2D6, sequence (P10635 whole entry): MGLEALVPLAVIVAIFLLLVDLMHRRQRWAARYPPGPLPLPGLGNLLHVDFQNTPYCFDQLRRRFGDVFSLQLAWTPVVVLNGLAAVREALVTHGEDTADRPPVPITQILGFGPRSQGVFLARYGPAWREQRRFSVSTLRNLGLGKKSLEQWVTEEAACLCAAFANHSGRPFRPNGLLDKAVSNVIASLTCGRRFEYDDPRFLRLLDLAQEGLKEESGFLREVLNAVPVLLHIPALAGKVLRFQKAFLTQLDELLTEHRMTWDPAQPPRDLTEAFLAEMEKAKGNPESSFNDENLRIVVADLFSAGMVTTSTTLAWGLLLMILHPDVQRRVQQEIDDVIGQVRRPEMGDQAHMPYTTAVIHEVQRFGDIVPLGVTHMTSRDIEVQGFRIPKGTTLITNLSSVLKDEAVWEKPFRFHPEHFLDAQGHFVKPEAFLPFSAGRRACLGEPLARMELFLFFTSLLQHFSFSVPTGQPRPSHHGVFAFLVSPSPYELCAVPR

effective half-life (in vivo): about 36 hours
reduction of clearance (patients with renal impairment (creatinine clearance up to 50 ml/min) or hepatic cirrhosis): approximately 50%
area under the curve over 24 hours (AUC) (single 250 mg terbinafine dose): about 4.56 μg.hour/ml
peak drug plasma concentration (Cmax) (single 250 mg terbinafine dose): about 1 μg/ml
time to peak drug plasma concentration (single 250 mg terbinafine dose): ≤ 2 h
factor of AUC increase in steady state versus single dose (steady state): 2.5
increase of peak blood concentration (Cmax) in steady state versus single dose (steady state): 25%
change in AUC when administered with a meal (with a meal): moderate increase
inhibition of CYP2D6 (CYP2D6): potent inhibitor
SMILES: CN(C/C=C/C#CC(C)(C)C)Cc1cccc2ccccc12 [terbinafine, Terbinafine]
